The term IC50 denotes the concentration that gives 50% inhibition. What is called Ki is the dissociation constant of the complex between target and ligand, obtained from inhibition or displacement. A higher Ki goes with weaker binding.

Data on three compounds can be found in patent US20260124170A1, “PHARMACEUTICAL COMPOSITION COMPRISING METABOLITE OF ENAVOGLIFLOZIN, AND USE THEREOF” (DAEWOONG PHARMACEUTICAL CO., LTD., priority 2022, published 2026).

Assay [1] concerns the target T1, SGLT1 (Homo sapiens, UniProt P13866).
T1 construct: expressed in transfected cells
T1 sequence (P13866 1-664): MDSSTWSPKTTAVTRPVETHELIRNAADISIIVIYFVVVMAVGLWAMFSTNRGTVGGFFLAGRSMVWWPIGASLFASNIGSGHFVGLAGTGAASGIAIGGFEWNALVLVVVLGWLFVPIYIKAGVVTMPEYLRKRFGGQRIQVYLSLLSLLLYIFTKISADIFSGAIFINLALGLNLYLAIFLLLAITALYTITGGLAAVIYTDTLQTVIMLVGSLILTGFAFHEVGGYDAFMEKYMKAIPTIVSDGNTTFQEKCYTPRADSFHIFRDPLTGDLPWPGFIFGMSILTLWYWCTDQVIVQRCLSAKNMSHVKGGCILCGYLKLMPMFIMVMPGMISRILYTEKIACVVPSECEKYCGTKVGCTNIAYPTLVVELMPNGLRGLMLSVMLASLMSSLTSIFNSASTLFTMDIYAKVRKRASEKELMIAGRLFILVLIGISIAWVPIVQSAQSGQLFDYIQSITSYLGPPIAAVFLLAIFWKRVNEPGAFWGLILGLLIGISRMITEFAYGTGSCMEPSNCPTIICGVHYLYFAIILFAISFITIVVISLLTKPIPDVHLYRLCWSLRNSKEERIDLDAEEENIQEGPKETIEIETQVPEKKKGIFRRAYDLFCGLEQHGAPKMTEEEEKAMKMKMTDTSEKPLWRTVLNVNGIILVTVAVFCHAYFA
In words: Inhibition of [14C]AMG uptake in SGLT1-overexpressing CHO cells. It is filed as cell-based. Conditions: IC50 (nM) SGLT1 mean ± SD (n = 3), 10 μM [14C]AMG, 2 h, 37° C. The method, then:
An SGLT1-overexpressing cell line (CHO-SGLT1 stable cells) and mock cells (CHO-mock cells) were cultured to reach 80% confluency, and then the cells were seeded in 96-well plates at 1×10^5 cells/well.
After 24 hours, the medium was removed, and a pre-incubation buffer [10 mM hydroxyethylpiperazine ethane sulfonic acid (HEPES), 5 mM Tris, 140 mM choline chloride, 2 mM KCl, 1 mM CaCl2), 1 mM MgCl2, pH 7.4] was added, and the cells were cultured for one hour.
After one hour, the pre-incubation buffer was removed, and an incubation buffer [10 mM HEPES, 5 mM Tris, 140 mM NaCl, 2 mM KCl, 1 mM CaCl2), 1 mM MgCl2, pH 7.4] containing 10 μM [^14C] methyl α-D-glucopyranoside (AMG), a substrate of SGLT1, and inhibitory evaluation substances at various concentrations was added and allowed to react in a thermo micro mixer at 37° C. for two hours.
After a preset time, the cells were washed twice with 200 μL of ice-cold washing buffer [10 mM HEPES, 5 mM Tris, 140 mM choline chloride, 2 mM KCl, 1 mM CaCl2), 1 mM MgCl2, 100 mM AMG, pH 7.4].
After removing the medium, 40 μL of 10% sodium dodecyl sulfate (SDS) solution was added to lyse the cells, and then the samples were transferred to a measurement plate of a liquid scintillation counter, and 150 μL of OptiPhase Supermix®, an isotope measurement cocktail solution, was added, and the cells were incubated overnight to ensure that the cell solution was homogeneously mixed with the cocktail solution.
[^14C]AMG in the samples was measured using the liquid scintillation counter.
At this time, the inhibitory effect Sigmoid Emax model was used, and the WinNonlin program (ver. 2.0) was utilized. All data values were expressed as the mean±standard deviation (SD) of three independent experiments.

For assay [2], the target named is T1, SGLT1. Put plainly: Change in SGLT1 inhibition according to drug pretreatment time (CHO-SGLT1). It is filed as cell-based. Conditions: for IC50: CHO-SGLT1; for Change in SGLT1 inhibition as exposure time increased: pretreatment 0, 1, 2 h, one-way ANOVA. An excerpt: (§1) All data values are expressed as the mean±SD of […].
For assay [3], the target named is T2, SGLT2 (Homo sapiens, UniProt P31639).
T2 construct: expressed in transfected cells
T2 sequence (P31639 1-672): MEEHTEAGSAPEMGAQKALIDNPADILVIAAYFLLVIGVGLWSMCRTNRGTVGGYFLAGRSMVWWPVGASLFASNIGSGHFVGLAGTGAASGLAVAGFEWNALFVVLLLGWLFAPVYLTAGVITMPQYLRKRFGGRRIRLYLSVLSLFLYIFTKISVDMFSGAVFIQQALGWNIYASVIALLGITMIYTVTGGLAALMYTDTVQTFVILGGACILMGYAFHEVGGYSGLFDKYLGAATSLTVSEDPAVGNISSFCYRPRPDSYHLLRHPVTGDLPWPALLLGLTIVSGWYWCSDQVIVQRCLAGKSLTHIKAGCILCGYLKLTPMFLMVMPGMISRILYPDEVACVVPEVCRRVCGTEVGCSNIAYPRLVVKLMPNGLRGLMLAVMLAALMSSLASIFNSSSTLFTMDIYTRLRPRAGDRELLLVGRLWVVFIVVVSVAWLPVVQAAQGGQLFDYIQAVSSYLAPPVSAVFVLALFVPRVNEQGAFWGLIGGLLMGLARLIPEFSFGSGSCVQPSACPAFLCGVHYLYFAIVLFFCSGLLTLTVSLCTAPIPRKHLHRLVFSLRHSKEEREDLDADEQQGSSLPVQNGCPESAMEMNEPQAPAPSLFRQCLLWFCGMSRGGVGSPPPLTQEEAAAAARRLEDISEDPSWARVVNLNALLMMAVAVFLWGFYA
In words: SGLT2 inhibition with varied substrate AMG concentration (Dixon / L-B plot). It is filed as cell-based. Conditions: for Inhibition mechanism, SGLT2: CHO-SGLT2, varied AMG concentration; for Ki: from slope of L-B plot, CHO-SGLT2.
Description: (§2) From these, the inhibition mechanism was confirmed, and the inhibition constant was calculated.

Assay [4] has as its target T2, SGLT2. In words: Change in SGLT2 inhibition according to drug pretreatment time (CHO-SGLT2). The format is cell-based. Particulars: for IC50: CHO-SGLT2; for Change in SGLT2 inhibition as exposure time increased: pretreatment 0, 1, 2 h, one-way ANOVA.
Description: as §1

The target of assay [5] is T1, SGLT1. In words: SGLT1 inhibition with varied substrate AMG concentration (Dixon / L-B plot). It is filed as cell-based. Conditions: for Inhibition mechanism, SGLT1: CHO-SGLT1, varied AMG concentration; for Ki: from slope of L-B plot, CHO-SGLT1.
Description: as §2
For the next assay, the system named is normal rats. Put plainly: Oral glucose tolerance test (OGTT) after intravenous administration. The format is in vivo, rat. Particulars: 1 mg/kg intravenous; for Glucose tolerance inhibition rate improved compared to the vehicle (blood glucose AUC): AUC for 120 minutes; for Glucose tolerance in OGTT: glucose 2 g/kg. The method, then:
Enavogliflozin, M1, or M2 was intravenously administered once to normal rats, and antidiabetic efficacy was evaluated.
To perform the oral glucose tolerance test (OGTT) and examine urinary glucose excretion (UGE), enavogliflozin, M1, or M2 was administered intravenously to male 8-week-old normal rats at a dose of 1 mg/kg, and then a glucose solution (2 g/kg) was administered to load blood sugar. The blood sugar level was measured before glucose solution administration and at 5, 10, 15, 20, 30, 40, 60, 90, and 120 minutes after the administration to evaluate oral glucose tolerance. In addition, the UGE was evaluated by measuring the amount of glucose excreted in the urine 6, 24, 48, and 72 hours after the administration of the glucose solution.

The mark [6] stands for this setting: IC50 according to pretreatment time (nM), SGLT1, 1 h, 1 h pretreatment in sodium-free buffer.
[7] abbreviates: IC50 according to pretreatment time (nM), SGLT1, 2 h, 2 h pretreatment in sodium-free buffer.
[8] abbreviates: no pretreatment, read-out: IC50 according to pretreatment time (nM), SGLT1, 0 h.
[9] abbreviates: IC50 according to pretreatment time (nM), SGLT2, 1 h, 1 h pretreatment in sodium-free buffer.
Where [10] appears, read: IC50 according to pretreatment time (nM), SGLT2, 2 h, 2 h pretreatment in sodium-free buffer.
The mark [11] stands for this setting: no pretreatment, read-out: IC50 according to pretreatment time (nM), SGLT2, 0 h.

“And” between values parts separate entries of the source, which are not always exact repeats. Identical values can stand only once. Like-named read-outs stand apart in the source and are kept apart here.

With `OC[C@H]1O[C@@H](c2cc(Cc3ccc(C4CC4)cc3)c(Cl)c3c2CCO3)[C@H](O)[C@@H](O)[C@@H]1O` [Enavogliflozin, (2S,3R,4R,5S,6R)-2-(7-chloro-6 (4-cyclopropylbenzyl)-2,3-dihydrobenzofuran-4-yl)-6-(hydroxymethyl)tetrahydro-2H-pyran-3,4,5-triol], the 50% inhibitory concentration (IC50) against SGLT1 [1] worked out at 861 ± 59.4 nM; on SGLT1 [2] (setting [6]), 889 ± 238 nM; at SGLT1 [2] (setting [7]) it was 829 ± 194 nM; at SGLT1 [2] (setting [8]) it was 867 ± 163 nM; on SGLT2 [4] (setting [9]), 0.285 ± 0.188 nM; at SGLT2 [4] (setting [10]) it was 0.519 ± 0.222 nM. Also, on SGLT2 [4] (setting [11]), the concentration for half-maximal inhibition (IC50) worked out at 0.388 ± 0.119 nM. On SGLT1 [2], the “Change in SGLT1 inhibition as exposure time increased” value is recorded as “did not show any significant change or increase in inhibition”. The “Inhibition mechanism, SGLT2” value at SGLT2 [3] was “Competitive inhibition”. In addition, the inhibitory constant (Ki) stood at 0.411 nM on SGLT2 [3] and 495 nM at SGLT1 [5]. The “Change in SGLT2 inhibition as exposure time increased” value at SGLT2 [4] is reported as “did not increase or significantly change”. Besides, the “Inhibition mechanism, SGLT1” value at SGLT1 [5] is “Competitive inhibition”. Also, the “Glucose tolerance inhibition rate improved compared to the vehicle (blood glucose AUC)” value with normal rats was 27%. Further, the “Glucose tolerance in OGTT” value in the assay with normal rats was “improved glucose tolerance”.
Turning to `OC[C@H]1O[C@@H](c2cc(Cc3ccc(C4CC4)cc3)c(Cl)c3c2CC(O)O3)[C@H](O)[C@@H](O)[C@@H]1O` (stereo partly drawn) [M1, (2S,3R,4R,5S,6R)-2-(7-chloro-6-(4-cyclopropylbenzyl)-2-hydroxy-2,3-dihydrobenzofuran-4-yl)-6-(hydroxymethyl)tetrahydro-2H-pyran-3,4,5-triol], the IC50 was ~28.4 nM and 28.4 nM at SGLT1 [1]; 103 ± 22.4 nM on SGLT1 [2] (setting [6]); 76.6 ± 1.2 nM at SGLT1 [2] (setting [7]); 29.2 ± 13.5 nM at SGLT1 [2] (setting [8]); 5.24 ± 1.1 nM on SGLT2 [4] (setting [9]); 9.95 ± 3.14 nM at SGLT2 [4] (setting [10]). Besides, on SGLT2 [4] (setting [11]), the 50% inhibitory concentration (IC50) was 8.44 ± 0.77 nM. In addition, at SGLT1 [2], the “Change in SGLT1 inhibition as exposure time increased” value was “significantly increased”. In addition, the “Inhibition mechanism, SGLT2” value on SGLT2 [3] is “Competitive inhibition”. Besides, the Ki is 7.49 nM at SGLT2 [3] and 84.8 nM on SGLT1 [5]. For the same compound, the “Change in SGLT2 inhibition as exposure time increased” value at SGLT2 [4] is “did not increase or significantly change”. In addition, at SGLT1 [5], the “Inhibition mechanism, SGLT1” value was “Competitive inhibition”. In addition, the “Glucose tolerance inhibition rate improved compared to the vehicle (blood glucose AUC)” value with normal rats worked out at 49%. Besides, the “Glucose tolerance in OGTT” value with normal rats (1 mg/kg) was “improved glucose tolerance”; with normal rats (listed as Metabolite M1, 1 mg/kg) it was “superior glucose tolerance to enavogliflozin”.
Turning to `OC[C@H]1O[C@@H](c2cc(Cc3ccc(C4(O)CC4)cc3)c(Cl)c3c2CCO3)[C@H](O)[C@@H](O)[C@@H]1O` [M2, (2S,3R,4R,5S,6R)-2-(7-chloro-6-(4-(1-hydroxycyclopropyl)benzyl)-2,3-dihydrobenzofuran-4-yl)-6-(hydroxymethyl)tetrahydro-2H-pyran-3,4,5-triol], the IC50 against SGLT1 [1] amounted to 1220 ± 165 nM; on SGLT1 [2] (setting [6]), 1020 ± 225 nM; on SGLT1 [2] (setting [7]), 1180 ± 177 nM; on SGLT1 [2] (setting [8]), 1080 ± 71 nM; at SGLT2 [4] (setting [9]), 3.63 ± 0.83 nM; on SGLT2 [4] (setting [10]), 3.24 ± 0.81 nM. Also, the IC50 at SGLT2 [4] (setting [11]) is 2.75 ± 0.36 nM. The “Change in SGLT1 inhibition as exposure time increased” value on SGLT1 [2] was “did not show any significant change or increase in inhibition”. Moreover, the “Inhibition mechanism, SGLT2” value on SGLT2 [3] is given as “Competitive inhibition”. In addition, the Ki at SGLT2 [3] stood at 6.18 nM; at SGLT1 [5], 1870 nM. Moreover, on SGLT2 [4], the “Change in SGLT2 inhibition as exposure time increased” value is “did not increase or significantly change”. Moreover, the “Inhibition mechanism, SGLT1” value at SGLT1 [5] is reported as “Competitive inhibition”. For the same compound, the “Glucose tolerance inhibition rate improved compared to the vehicle (blood glucose AUC)” value in the assay with normal rats worked out at 23%. In the assay with normal rats (1 mg/kg), the “Glucose tolerance in OGTT” value is recorded as “improved glucose tolerance”.
